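These data come from cells grown in 96-well plates and exposed to compound for 48 hours at five concentrations. At the GI50, growth is halved.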 Calls of active or inactive are those of the source. No stated cut-off is given here; in the data, active = GI50 up to about 1.1 µM and inactive = higher.
What was measured:
Assay in all cases: growth of human tumour cells (NCI), 48 h
SW-620 = tested on: SW-620
OVCAR-8 = tested on: OVCAR-8
HT-29 = tested on: HT-29
COLO 205 = tested on: COLO 205
EKVX = tested on: EKVX
UO-31 = tested on: UO-31
LOX IMVI = tested on: LOX IMVI
OVCAR-3 = tested on: OVCAR-3
U-251 = tested on: U-251
K562 = tested on: K562
A549 = tested on: A549
HCC 2998 = tested on: HCC 2998
UACC-62 = tested on: UACC-62
SF-539 = tested on: SF-539
NCI-H522 = tested on: NCI-H522
CCRF-CEM = tested on: CCRF-CEM
UACC-257 = tested on: UACC-257

Measured: GI50

Sc1ccccc1S
inactive: SW-620 > 100 µM | OVCAR-8 > 10 µM | HT-29 > 100 µM | COLO 205 > 100 µM | EKVX > 10 µM | UO-31 > 10 µM | LOX IMVI > 100 µM | OVCAR-3 > 100 µM | U-251 > 100 µM | K562 > 100 µM | A549 > 100 µM | HCC 2998 > 100 µM | UACC-62 > 100 µM

N#C[C-](C#N)[n+]1ccc(Cl)cc1
inactive: SW-620 10.9 µM | OVCAR-8 17.1 µM | HT-29 18 µM | COLO 205 18.5 µM | SF-539 20.4 µM | NCI-H522 3.19 µM | EKVX 19 µM | UO-31 22.8 µM | LOX IMVI 11.2 µM | CCRF-CEM 9.27 µM | OVCAR-3 17.7 µM | U-251 16.2 µM | K562 3.03 µM | A549 34.3 µM | UACC-62 15.9 µM | UACC-257 15.2 µM

CCCCCCCC(=O)OCC1OC(n2cc(F)c(=O)[nH]c2=O)C(N)C(O)C1O (centres undefined)
inactive: SW-620 > 100 µM | OVCAR-8 > 100 µM | HT-29 > 100 µM | COLO 205 > 100 µM | SF-539 > 100 µM | NCI-H522 > 100 µM | EKVX > 100 µM | UO-31 > 100 µM | CCRF-CEM > 100 µM | OVCAR-3 > 100 µM | U-251 > 100 µM | K562 > 100 µM | A549 > 100 µM | HCC 2998 > 100 µM | UACC-62 > 100 µM | UACC-257 > 100 µM

C/C(=N\NC(=O)CC(=O)Nc1ccc(Cl)cc1)c1cc2ccccc2oc1=O
inactive: SW-620 > 100 µM | OVCAR-8 > 100 µM | HT-29 > 100 µM | COLO 205 > 100 µM | SF-539 > 100 µM | NCI-H522 > 100 µM | EKVX > 100 µM | UO-31 > 100 µM | LOX IMVI > 100 µM | CCRF-CEM > 100 µM | OVCAR-3 > 100 µM | U-251 > 100 µM | K562 > 100 µM | A549 > 100 µM | UACC-62 > 100 µM | UACC-257 > 100 µM

S=c1nc(N2CCCCC2)ss1
inactive: SW-620 24.8 µM | OVCAR-8 28.5 µM | HT-29 28.8 µM | SF-539 18.9 µM | EKVX 24.2 µM | UO-31 17.7 µM | CCRF-CEM 11.7 µM | U-251 18.2 µM | K562 18.4 µM | A549 28.4 µM | HCC 2998 16.2 µM | UACC-62 17.5 µM | UACC-257 19.8 µM
